Where no end group is shown, it is not given here.
Experiments:
Type in all cases: cell-based
Settings in all cases: mean ± S.E.M., three independent experiments (n=3), SEM, read-out: IP1 accumulation pEC50 ± S.E.M. (converted)
NMUR1 H338A = molecular target: T1, NMUR1 H338A (Homo sapiens, UniProt Q9HB89, H338A); assay: IP-One assay, NMUR1 H338A
T1 construct: The full-length human NMUR1 and NMUR2 were modified; expressed in transfected cells; host or cells: AD293 cells
Method: (§1) IP-One production was measured using the IP-One HTRF kit (Cisbio)[62]. Briefly, AD293 cells (Agilent) were grown to a density of 400,000–500,000 cells per mL and then infected with separate plasmids at a suitable concentration. The culture was collected by centrifugation 24 h after incubation at 37 °C in 5% CO2 with a Stimulation Buffer. The cell suspension was then dispensed in a white 384-well plate at a volume of 7 μl per well before adding 7 μl of ligands. The mixture was incubated for 1 h at 37 °C. IP-One-d2 and anti-IP-One Cryptate dissolved in Lysis Buffer (3 μl each) were subsequently added and incubated for 15-30 min at room temperature before measurement. Intracellular IP-One measurement was carried with the IP-One HTRF kit and EnVision multi-plate reader (PerkinElmer) according to the manufacturer’s instructions. Data were normalized to the baseline response of the ligand.
(§2) The significance was determined with two-side, one-way ANOVA with Tukey’s test, and ^*P < 0.05 was considered statistically significant.

NMUR1 E120A = molecular target: T2, NMUR1 E120A (Homo sapiens, UniProt Q9HB89, E120A); assay: IP-One assay, NMUR1 E120A
T2 construct: The full-length human NMUR1 and NMUR2 were modified; expressed in transfected cells; host or cells: AD293 cells
Method: as §1, §2

NMUR2 F316A = molecular target: T3, NMUR2 F316A (Homo sapiens, UniProt Q9GZQ4, F316A); assay: IP-One assay, NMUR2 F316A
T3 construct: expressed in transfected cells; host or cells: AD293 cells (Agilent)
Method: as §1, §2

NMUR1 H331A = molecular target: T4, NMUR1 H331A (Homo sapiens, UniProt Q9HB89, H331A); assay: IP-One assay, NMUR1 H331A
T4 construct: The full-length human NMUR1 and NMUR2 were modified; expressed in transfected cells; host or cells: AD293 cells
Method: as §1, §2

NMUR2 K122A = molecular target: T5, NMUR2 K122A (Homo sapiens, UniProt Q9GZQ4, K122A); assay: IP-One assay, NMUR2 K122A
T5 construct: expressed in transfected cells; host or cells: AD293 cells
Method: as §1, §2

NMUR1 F141A = molecular target: T6, NMUR1 F141A (Homo sapiens, UniProt Q9HB89, F141A); assay: IP-One assay, NMUR1 F141A
T6 construct: The full-length human NMUR1 and NMUR2 were modified; expressed in transfected cells; host or cells: AD293 cells
Method: as §1, §2

NMUR2 F284A = molecular target: T7, NMUR2 F284A (Homo sapiens, UniProt Q9GZQ4, F284A); assay: IP-One assay, NMUR2 F284A
T7 construct: expressed in transfected cells; host or cells: AD293 cells
Method: as §1, §2

NMUR1 M121A = molecular target: T8, NMUR1 M121A (Homo sapiens, UniProt Q9HB89, M121A); assay: IP-One assay, NMUR1 M121A
T8 construct: The full-length human NMUR1 and NMUR2 were modified; expressed in transfected cells; host or cells: AD293 cells
Method: as §1, §2

NMUR1 W320A = molecular target: T9, NMUR1 W320A (Homo sapiens, UniProt Q9HB89, W320A); assay: IP-One assay, NMUR1 W320A
T9 construct: The full-length human NMUR1 and NMUR2 were modified; expressed in transfected cells; host or cells: AD293 cells
Method: as §1, §2

NMUR2 F126A = molecular target: T10, NMUR2 F126A (Homo sapiens, UniProt Q9GZQ4, F126A); assay: IP-One assay, NMUR2 F126A
T10 construct: expressed in transfected cells; host or cells: AD293 cells
Method: as §1, §2

NMUR2 T123A = molecular target: T11, NMUR2 T123A (Homo sapiens, UniProt Q9GZQ4, T123A); assay: IP-One assay, NMUR2 T123A
T11 construct: expressed in transfected cells; host or cells: AD293 cells
Method: as §1, §2

NMUR1 Q335A = molecular target: T12, NMUR1 Q335A (Homo sapiens, UniProt Q9HB89, Q335A); assay: IP-One assay, NMUR1 Q335A
T12 construct: The full-length human NMUR1 and NMUR2 were modified; expressed in transfected cells; host or cells: AD293 cells
Method: as §1, §2

NMUR2 S312A = molecular target: T13, NMUR2 S312A (Homo sapiens, UniProt Q9GZQ4, S312A); assay: IP-One assay, NMUR2 S312A
T13 construct: expressed in transfected cells; host or cells: AD293 cells
Method: as §1, §2

NMUR2 Y317A = molecular target: T14, NMUR2 Y317A (Homo sapiens, UniProt Q9GZQ4, Y317A); assay: IP-One assay, NMUR2 Y317A
T14 construct: expressed in transfected cells; host or cells: AD293 cells (Agilent)
Method: as §1, §2

NMUR2 T203A = molecular target: T15, NMUR2 T203A (Homo sapiens, UniProt Q9GZQ4, T203A); assay: IP-One assay, NMUR2 T203A
T15 construct: expressed in transfected cells; host or cells: AD293 cells
Method: as §1, §2

NMUR1 Y125A = molecular target: T16, NMUR1 Y125A (Homo sapiens, UniProt Q9HB89, Y125A); assay: IP-One assay, NMUR1 Y125A
T16 construct: The full-length human NMUR1 and NMUR2 were modified; expressed in transfected cells; host or cells: AD293 cells
Method: as §1, §2

NMUR1 Y346A = molecular target: T17, NMUR1 Y346A (Homo sapiens, UniProt Q9HB89, Y346A); assay: IP-One assay, NMUR1 Y346A
T17 construct: The full-length human NMUR1 and NMUR2 were modified; expressed in transfected cells; host or cells: AD293 cells
Method: as §1, §2

NMUR1 V339A = molecular target: T18, NMUR1 V339A (Homo sapiens, UniProt Q9HB89, V339A); assay: IP-One assay, NMUR1 V339A
T18 construct: The full-length human NMUR1 and NMUR2 were modified; expressed in transfected cells; host or cells: AD293 cells
Method: as §1, §2

NMUR1 L59A = molecular target: T19, NMUR1 L59A (Homo sapiens, UniProt Q9HB89, L59A); assay: IP-One assay, NMUR1 L59A
T19 construct: The full-length human NMUR1 and NMUR2 were modified; expressed in transfected cells; host or cells: AD293 cells
Method: as §1, §2

NMUR1 D316A = molecular target: T20, NMUR1 D316A (Homo sapiens, UniProt Q9HB89, D316A); assay: IP-One assay, NMUR1 D316A
T20 construct: The full-length human NMUR1 and NMUR2 were modified; expressed in transfected cells; host or cells: AD293 cells
Method: as §1, §2

NMUR2 E102A = molecular target: T21, NMUR2 E102A (Homo sapiens, UniProt Q9GZQ4, E102A); assay: IP-One assay, NMUR2 E102A
T21 construct: expressed in transfected cells; host or cells: AD293 cells
Method: as §1, §2

NMUR2 E105A = molecular target: T22, NMUR2 E105A (Homo sapiens, UniProt Q9GZQ4, E105A); assay: IP-One assay, NMUR2 E105A
T22 construct: expressed in transfected cells; host or cells: AD293 cells
Method: as §1, §2

NMUR2 W297A = molecular target: T23, NMUR2 W297A (Homo sapiens, UniProt Q9GZQ4, W297A); assay: IP-One assay, NMUR2 W297A
T23 construct: expressed in transfected cells; host or cells: AD293 cells
Method: as §1, §2

NMUR1 E117A = molecular target: T24, NMUR1 E117A (Homo sapiens, UniProt Q9HB89, E117A); assay: IP-One assay, NMUR1 E117A
T24 construct: The full-length human NMUR1 and NMUR2 were modified; expressed in transfected cells; host or cells: AD293 cells
Method: as §1, §2

NMUR1 F345A = molecular target: T25, NMUR1 F345A (Homo sapiens, UniProt Q9HB89, F345A); assay: IP-One assay, NMUR1 F345A
T25 construct: The full-length human NMUR1 and NMUR2 were modified; expressed in transfected cells; host or cells: AD293 cells
Method: as §1, §2

NMUR2 A302G = molecular target: T26, NMUR2 A302G (Homo sapiens, UniProt Q9GZQ4, A302G); assay: IP-One assay, NMUR2 A302G
T26 construct: expressed in transfected cells; host or cells: AD293 cells
Method: as §1, §2

T22 sequence (Q9GZQ4 whole entry E105A): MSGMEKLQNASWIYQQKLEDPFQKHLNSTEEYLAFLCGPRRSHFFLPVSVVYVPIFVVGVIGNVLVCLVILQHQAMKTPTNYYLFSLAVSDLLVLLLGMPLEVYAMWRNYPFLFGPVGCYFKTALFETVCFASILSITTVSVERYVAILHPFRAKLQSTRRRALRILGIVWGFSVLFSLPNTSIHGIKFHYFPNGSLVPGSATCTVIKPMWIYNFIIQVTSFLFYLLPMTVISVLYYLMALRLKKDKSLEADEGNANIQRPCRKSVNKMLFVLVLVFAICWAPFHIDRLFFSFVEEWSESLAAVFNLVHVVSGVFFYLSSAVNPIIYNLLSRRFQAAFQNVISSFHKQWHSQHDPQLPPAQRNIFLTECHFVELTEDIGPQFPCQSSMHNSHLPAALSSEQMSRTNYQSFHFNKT
T7 sequence (Q9GZQ4 whole entry F284A): as the sequence (Q9GZQ4 whole entry E105A) above, with A105E, F284A counted along it
T21 sequence (Q9GZQ4 whole entry E102A): as the sequence (Q9GZQ4 whole entry E105A) above, with E102A, A105E counted along it
T18 sequence (Q9HB89 whole entry V339A): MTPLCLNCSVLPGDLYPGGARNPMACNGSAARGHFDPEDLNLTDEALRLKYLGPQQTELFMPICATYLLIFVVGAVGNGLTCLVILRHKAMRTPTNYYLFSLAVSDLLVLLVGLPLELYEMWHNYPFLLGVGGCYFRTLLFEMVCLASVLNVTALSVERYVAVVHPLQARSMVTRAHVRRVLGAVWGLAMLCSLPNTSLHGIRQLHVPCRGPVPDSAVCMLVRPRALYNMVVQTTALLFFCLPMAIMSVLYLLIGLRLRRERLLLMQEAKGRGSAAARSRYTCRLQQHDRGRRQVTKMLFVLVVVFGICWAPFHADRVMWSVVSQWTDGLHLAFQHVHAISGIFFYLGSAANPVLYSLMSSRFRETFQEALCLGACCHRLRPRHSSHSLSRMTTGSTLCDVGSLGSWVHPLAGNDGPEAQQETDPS
T4 sequence (Q9HB89 whole entry H331A): as the sequence (Q9HB89 whole entry V339A) above, with H331A, A339V counted along it
T1 sequence (Q9HB89 whole entry H338A): as the sequence (Q9HB89 whole entry V339A) above, with H338A, A339V counted along it
T25 sequence (Q9HB89 whole entry F345A): as the sequence (Q9HB89 whole entry V339A) above, with A339V, F345A counted along it
T3 sequence (Q9GZQ4 whole entry F316A): as the sequence (Q9GZQ4 whole entry E105A) above, with A105E, F316A counted along it
T10 sequence (Q9GZQ4 whole entry F126A): as the sequence (Q9GZQ4 whole entry E105A) above, with A105E, F126A counted along it
T6 sequence (Q9HB89 whole entry F141A): as the sequence (Q9HB89 whole entry V339A) above, with F141A, A339V counted along it
T11 sequence (Q9GZQ4 whole entry T123A): as the sequence (Q9GZQ4 whole entry E105A) above, with A105E, T123A counted along it
T24 sequence (Q9HB89 whole entry E117A): as the sequence (Q9HB89 whole entry V339A) above, with E117A, A339V counted along it
T5 sequence (Q9GZQ4 whole entry K122A): as the sequence (Q9GZQ4 whole entry E105A) above, with A105E, K122A counted along it
T9 sequence (Q9HB89 whole entry W320A): as the sequence (Q9HB89 whole entry V339A) above, with W320A, A339V counted along it
T8 sequence (Q9HB89 whole entry M121A): as the sequence (Q9HB89 whole entry V339A) above, with M121A, A339V counted along it
T20 sequence (Q9HB89 whole entry D316A): as the sequence (Q9HB89 whole entry V339A) above, with D316A, A339V counted along it
T23 sequence (Q9GZQ4 whole entry W297A): as the sequence (Q9GZQ4 whole entry E105A) above, with A105E, W297A counted along it
T15 sequence (Q9GZQ4 whole entry T203A): as the sequence (Q9GZQ4 whole entry E105A) above, with A105E, T203A counted along it
T14 sequence (Q9GZQ4 whole entry Y317A): as the sequence (Q9GZQ4 whole entry E105A) above, with A105E, Y317A counted along it
T2 sequence (Q9HB89 whole entry E120A): as the sequence (Q9HB89 whole entry V339A) above, with E120A, A339V counted along it
T12 sequence (Q9HB89 whole entry Q335A): as the sequence (Q9HB89 whole entry V339A) above, with Q335A, A339V counted along it
T16 sequence (Q9HB89 whole entry Y125A): as the sequence (Q9HB89 whole entry V339A) above, with Y125A, A339V counted along it
T17 sequence (Q9HB89 whole entry Y346A): as the sequence (Q9HB89 whole entry V339A) above, with A339V, Y346A counted along it
T13 sequence (Q9GZQ4 whole entry S312A): as the sequence (Q9GZQ4 whole entry E105A) above, with A105E, S312A counted along it
T19 sequence (Q9HB89 whole entry L59A): as the sequence (Q9HB89 whole entry V339A) above, with L59A, A339V counted along it
T26 sequence (Q9GZQ4 whole entry A302G): as the sequence (Q9GZQ4 whole entry E105A) above, with A105E, A302G counted along it

EC50 (NMUR1 H338A): 29.5 nM
EC50 (NMUR1 E120A): 10.7 nM
EC50 (NMUR2 F316A): 8.71 nM
EC50 (NMUR1 H331A): 11.5 nM
EC50 (NMUR2 K122A): 61.7 nM
EC50 (NMUR1 F141A): 115 nM
EC50 (NMUR2 F284A): 7.08 nM
EC50 (NMUR1 M121A): 51.3 nM
EC50 (NMUR1 W320A): 2880 nM
EC50 (NMUR2 F126A): 2 nM
EC50 (NMUR2 T123A): 9.77 nM
EC50 (NMUR1 Q335A): 18.2 nM
EC50 (NMUR2 S312A): 2.45 nM
EC50 (NMUR2 Y317A): 2.63 nM
EC50 (NMUR2 T203A): 0.891 nM
EC50 (NMUR1 Y125A): 20 nM
EC50 (NMUR1 Y346A): 155 nM
EC50 (NMUR1 V339A): 11.5 nM
EC50 (NMUR1 L59A): 110 nM
EC50 (NMUR1 D316A): 10.5 nM
EC50 (NMUR2 E102A): 30.9 nM
EC50 (NMUR2 E105A): 11.7 nM
EC50 (NMUR2 W297A): 66.1 nM
EC50 (NMUR1 E117A): 1070 nM
EC50 (NMUR1 F345A): 1480 nM
EC50 (NMUR2 A302G): 70.8 nM
Substance: FRVDEEFQSPFASQSRGYFLFRPRN-NH2 [NMU, neuromedin U]

From PMC9019041, “Structural insights into the peptide selectivity and activation of human neuromedin U receptors” (Nature Communications, 2022)
